Target: Angiotensin-converting enzyme (Homo sapiens, UniProt P12821)
Test: Inhibition of ACE (unknown origin) using 3-Hydroxybutylyl-Gly-Gly-Gly substrate assessed as reduction in 3-Hyroxybutylic acid generation incubated for 1 hr by colorimetric assay; call rule not given here

Sequence of Angiotensin-converting enzyme (P12821 whole entry): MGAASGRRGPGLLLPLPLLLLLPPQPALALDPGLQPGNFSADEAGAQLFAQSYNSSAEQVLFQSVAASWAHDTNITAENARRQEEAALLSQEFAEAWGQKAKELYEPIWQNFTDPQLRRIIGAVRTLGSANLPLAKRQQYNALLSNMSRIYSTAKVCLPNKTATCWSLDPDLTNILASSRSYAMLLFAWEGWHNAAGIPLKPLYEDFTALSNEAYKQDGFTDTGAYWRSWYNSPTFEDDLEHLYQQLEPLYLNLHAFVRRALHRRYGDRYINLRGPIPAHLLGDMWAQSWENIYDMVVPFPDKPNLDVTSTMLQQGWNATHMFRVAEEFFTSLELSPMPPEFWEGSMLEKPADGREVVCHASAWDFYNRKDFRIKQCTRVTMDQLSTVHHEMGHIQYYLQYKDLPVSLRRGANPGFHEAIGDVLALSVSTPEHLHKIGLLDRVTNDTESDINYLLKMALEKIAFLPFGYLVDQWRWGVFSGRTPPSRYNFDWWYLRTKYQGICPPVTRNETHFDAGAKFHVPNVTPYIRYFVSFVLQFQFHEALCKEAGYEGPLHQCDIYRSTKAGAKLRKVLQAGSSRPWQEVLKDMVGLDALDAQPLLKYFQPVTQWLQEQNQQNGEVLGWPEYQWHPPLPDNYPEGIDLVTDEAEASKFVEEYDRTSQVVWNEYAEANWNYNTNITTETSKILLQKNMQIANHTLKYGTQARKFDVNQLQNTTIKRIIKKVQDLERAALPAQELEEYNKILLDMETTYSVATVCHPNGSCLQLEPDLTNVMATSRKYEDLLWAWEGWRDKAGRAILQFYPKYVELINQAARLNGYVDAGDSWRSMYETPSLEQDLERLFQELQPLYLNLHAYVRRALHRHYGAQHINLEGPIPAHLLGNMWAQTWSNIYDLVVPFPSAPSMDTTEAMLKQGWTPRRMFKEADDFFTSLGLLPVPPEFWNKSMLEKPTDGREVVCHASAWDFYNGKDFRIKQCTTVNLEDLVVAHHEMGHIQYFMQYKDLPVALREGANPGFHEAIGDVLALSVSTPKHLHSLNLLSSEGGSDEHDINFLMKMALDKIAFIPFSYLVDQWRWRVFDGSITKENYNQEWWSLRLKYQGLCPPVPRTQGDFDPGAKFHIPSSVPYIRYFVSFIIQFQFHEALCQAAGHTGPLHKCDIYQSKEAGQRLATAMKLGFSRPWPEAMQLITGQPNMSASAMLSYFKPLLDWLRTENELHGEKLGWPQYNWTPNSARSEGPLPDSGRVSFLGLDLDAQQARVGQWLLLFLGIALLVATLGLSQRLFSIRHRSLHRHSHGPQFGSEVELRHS

Row | SMILES | IC50 | IC50 (read-out: IC50) [µM]
1 | N=C(N)NCCC[C@@H](N)C(=O)O | Not Active | 
2 | O=C(OC1O[C@H](CO)[C@@H](O)[C@H](O)[C@H]1O)C1CSSC1 (stereo not given in full) |  | 347
3 | O=C(O)C1CSSC1 | Not Active | 
4 | N=C(N)NCCC[C@H](N)C(=O)O [ARGININE] | Not Active | 
5 | N[C@@H](CC(=O)O)C(=O)O [ASPARTIC ACID] | Not Active | 

Source: ChEMBL document CHEMBL3580612, “Top-down Targeted Metabolomics Reveals a Sulfur-Containing Metabolite with Inhibitory Activity against Angiotensin-Converting Enzyme in Asparagus officinalis” (J Nat Prod, 2015)
